These are literature values, as cited in patent US12558353B2 (CELLTAXIS, LLC, priority 2018, dated 2026).

Like-named read-outs stand apart in the source and are kept apart here.

One data set deals with patients with CF. The settings on record: high doses, cited from earlier work.
The target of a further data set is T1, BLT1 receptor (Homo sapiens, UniProt Q15722).
T1 construct: host or cells: human CF patients (endogenous receptor)
The settings on record: patients with stable CF lung disease, cited from earlier work.

Data set [1] deals with P. aeruginosa-infected mice. The settings on record: doses of 0.3 to 100 mg/kg; cited from earlier work.

T1 sequence (Q15722 whole entry): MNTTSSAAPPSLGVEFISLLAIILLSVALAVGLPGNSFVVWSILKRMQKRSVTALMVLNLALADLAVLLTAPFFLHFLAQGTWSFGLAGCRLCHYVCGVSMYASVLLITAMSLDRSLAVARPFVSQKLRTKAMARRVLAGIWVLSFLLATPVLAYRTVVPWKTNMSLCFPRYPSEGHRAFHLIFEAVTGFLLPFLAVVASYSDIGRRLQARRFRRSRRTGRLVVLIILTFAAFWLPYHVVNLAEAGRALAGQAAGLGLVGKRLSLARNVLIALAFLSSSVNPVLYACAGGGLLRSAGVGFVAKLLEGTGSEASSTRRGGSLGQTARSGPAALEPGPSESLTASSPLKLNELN

`CC(C)Cc1ccc(C(C)C(=O)O)cc1` (stereo not drawn) [ibuprofen]: in the data set on patients with CF (children with CF), the survival result was “improves survival”. In the data set on patients with CF, the lung function decline entry is on record as “slows lung function decline”.

As to `CCOC(=O)NC(=N)c1ccc(OCc2cccc(COc3ccc(C(C)(C)c4ccc(O)cc4)cc3)c2)cc1`, the “serious adverse events leading to early termination of the trial” value at BLT1 receptor was “increase in respiratory serious adverse events”. Further, the “serious adverse events leading to early termination of the trial” value at BLT1 receptor (listed as amelubant) is “increase in serious pulmonary AEs”. In data set [1], the “Mac-1 (CR3) expression” value was “significantly down-regulated”; the “number of neutrophils in the lungs and the airways” value is listed as “reduced the number of neutrophils”.
